The text below walks through data of patent US9734283B2, “Genomic features associated with epigenetic control regions and transgenerational inheritance of epimutations” (priority 2011, dated 2017).

The subject of series [1] is sperm promoter epigenome (DNA methylation). In words: MeDIP-Chip with Affymetrix mouse promoter tiling arrays. It is filed as in vivo. The conditions noted are these: duplicate arrays, no direct comparative hybridization; none confirmed by bisulfite PCR and mass spectrometry. The source says:
Affymetrics' GeneChip® Mouse Promoter 1.0R Array was used, which contains 4.6 million probes tiled that interrogate nearly 28,000 mouse promoter regions. These probes are 25-mer and tiled at an average resolution of 35 bp with gaps of approximately 10 bp between probes. Each promoter region covers approximately 6 kb upstream through 2.5 kb downstream of 5′ transcription start sites. A total of 6 arrays were used, one each for C1, C2, V1 and V2, one for C1+C2 and another for their DNA inputs, InpC1+InpC2.

The next series has as its system CD-1 and 129 strain mice. As to the kind of experiment: Transgenerational pathology analysis of adult onset disease (testis, prostate, kidney). The format is in vivo, mouse. The method, then: (§1) The experimental design involved exposing gestating female inbred 129 strain and outbred CD-1 strain mice to daily intraperitoneal (IP) injections of vehicle (DMSO) (control) or vinclozolin at two doses, 100 mg/kg/day (V1) or 200 mg/kg/day (V2), between embryonic day 7-13 of gestation. In addition, a comparison was used with flutamide IP injections at a 20/mg/kg/day dose. The F1 generation males and females from different litters were bred to generate the F2 generation animals and F2 generation males and females from different litters were bred to generate the F3 generation animals, see Methods below. No sibling or cousin breedings occurred to avoid any inbreeding artifacts. Selected F1, F2 and F3 generation animals from postnatal 90 (P90) or 300 (P300) days of age were analyzed for testis, sperm and other pathologies as previously described.^11, 20, 21
Timed pregnant inbred 129 mice were given intraperitoneal injections with vinclozolin (100 mg/kg·day, 99% pure; ChemService, West Chester, Pa.), flutamide (20 mg/kg·day, Sigma, St. Louis, Mo.) or DMSO in sesame oil (vehicle) as controls, while timed pregnant outbred CD-1 mice were given intraperitoneal injections (IP) with vinclozolin doses: 100 mg/kg·day (V1) or 200 mg/kg·day (V2) or DMSO in sesame oil as controls.^21 Mice were given injections from embryonic day (E) E7-E13, with plug date equal to day 0. Controls were injected with vehicle (DMSO) dose and were matched with vinclozolin or flutamide treatment animals within the same mouse strain at the time of injection and were analyzed together throughout all three generations. The number of treated gestating females used were: for mouse 129 strain (3 controls and 4 vinclozolin treated); for mouse 129 strain flutamide 20 mg/kg/day dose (3 controls and 3 flutamide treated); and for mouse CD-1 strain (4 control and 3 vinclozolin treated (100 mg/kg/day (V1), 3 vinclozolin 200 mg/kg/day (V2)). F1 postnatal (P)P90 males and females from different litters of control, vinclozolin and flutamide treatment groups were bred to generate the F2 generation. F2 generation mice were bred to generate the F3 generation. Breedings were carefully monitored to eliminate any sibling or cousin breeding to remove potential phenotypes as a result of inbreeding. Male mice were collected and analyzed between P60-P90 (P90) for all generations and treatment groups. The number of P90 males collected for replicates for the mouse 129 strain vinclozolin treatment group (i.e. n value) were: for F1 (8 control, 11 vinclozolin); for F2 (11 control, 22 vinclozolin); and for F3 (11 control, 11 vinclozolin). […]

The next series concerns CD-1 mice ovaries. As to the kind of experiment: Identification of ovarian cysts in vinclozolin lineage females. It is filed as in vivo, mouse. As to conditions: CD-1 females, all F1-F3 generations, V2 200 mg/kg/day; p<0.05. As for the experimental part:
Abnormalities in adult females of the F1, F2 and F3 generations were not extensively evaluated. However, at the time of sacrifice and dissection it was noticed that some females had cystic structures on their ovaries. These were grossly visible fluid-filled structures larger than normal Graffian follicles. If an animal had one or more cystic structures on one or both ovaries, then that female was considered to have cystic ovaries. A sub-set of 17 ovaries was also evaluated histologically, and there was concordance of ovaries labeled as cystic at gross dissection with the histologic presence of very large cystic structures. Cysts were defined as structures having a lining of none or a single layer of granulosa cells and an increased thickness of the surrounding stromal/thecal layer compared to what is found in large antral follicles.

The test system of series [2] is testicular spermatogenic cells. In words: Testicular spermatogenic cell apoptosis (TUNEL assay), F1-F3 lineage after F0 gestational exposure. The format is in vivo, mouse. As for the experimental part: as §1
Timed pregnant inbred 129 mice were given intraperitoneal injections with vinclozolin (100 mg/kg·day, 99% pure; ChemService, West Chester, Pa.), flutamide (20 mg/kg·day, Sigma, St. Louis, Mo.) or DMSO in sesame oil (vehicle) as controls, while timed pregnant outbred CD-1 mice were given intraperitoneal injections (IP) with vinclozolin doses: 100 mg/kg·day (V1) or 200 mg/kg·day (V2) or DMSO in sesame oil as controls.^21 Mice were given injections from embryonic day (E) E7-E13, with plug date equal to day 0. Controls were injected with vehicle (DMSO) dose and were matched with vinclozolin or flutamide treatment animals within the same mouse strain at the time of injection and were analyzed together throughout all three generations. […] Male mice were collected and analyzed between P60-P90 (P90) for all generations and treatment groups. […]

Series [3] relates to sperm promoter epigenome (DNA methylation). The conditions noted are these: previous comparative MeDIP-Chip study; cited from earlier work.
The mark [4] stands for this setting: F3 generation vinclozolin lineage CD-1 mice, P300, p<0.02 vs controls.

As to `C=CC1(C)OC(=O)N(c2cc(Cl)cc(Cl)c2)C1=O` (racemic) [vinclozolin, (RS)-3-(3,5-dichlorophenyl)-5-methyl-5-vinyl-1,3-oxazolidine-2,4-dione], the “number of differential methylation regions identified with Affymetrix tiling arrays” value in series [1] is listed as “seven”. In the series with CD-1 and 129 strain mice (setting [4]), the “animals that developed at least one disease” value amounted to 75% and the “animals with two or more disease states” value came to 34%. Also, in the series with CD-1 and 129 strain mice (aged (P300) F3 generation CD-1 strain, vinclozolin lineage vs control), the “proportion of mice exhibiting abnormal disease-like characteristics in testis, prostate, and kidney tissues” value is “increases”. Further, the “adult onset disease of the prostate, kidney, testis or ovaries” value in the series with CD-1 and 129 strain mice (inbred 129 strain mice, between treatment groups) was “no observable differences”. Further, the ovarian cysts result in the series on CD-1 mice ovaries was “significant increase”. In series [2] (129 inbred strain, vinclozolin 100 mg/kg/day IP to F0 E7-E13, F1, F2, F3 at P90, F1 and F2 at P300, vs control), the “mean number of apoptotic germ cells within the testes” value is “increased”. Moreover, the “testicular apoptotic germ cells” value in series [2] (CD-1 outbred strain, V1 100 mg/kg/day IP to F0 E7-E13, F1 and F3 P90, F1, F2, F3 P300) is “significant increases”. Besides, in series [3], the “number of promoters in rat sperm with transgenerational alteration in DNA methylation” value is given as 48.
